Data: patent US20030134859A1 (SANKYO COMPANY, LIMITED, priority 2000, published 2003)

What was measured:
[1] = target: T1, human PPAR γ 2 (Homo sapiens, UniProt P37231); assay: Inhibitory activity against PPAR γ transcription in the presence of agonist compound A, luciferase reporter; type: cell-based; conditions: in the presence of 10 nM compound A (agonist); MG63 cells transfected with pSG5-hPPARg and pGV-P2-PPRE; 24 hr
T1 construct: expressed in transfected cells; host or cells: human osteosarcoma MG63, transiently co-transfected with pSG5-hPPARg and the reporter pGV-P2-PPRE
T1 sequence (P37231 1-505): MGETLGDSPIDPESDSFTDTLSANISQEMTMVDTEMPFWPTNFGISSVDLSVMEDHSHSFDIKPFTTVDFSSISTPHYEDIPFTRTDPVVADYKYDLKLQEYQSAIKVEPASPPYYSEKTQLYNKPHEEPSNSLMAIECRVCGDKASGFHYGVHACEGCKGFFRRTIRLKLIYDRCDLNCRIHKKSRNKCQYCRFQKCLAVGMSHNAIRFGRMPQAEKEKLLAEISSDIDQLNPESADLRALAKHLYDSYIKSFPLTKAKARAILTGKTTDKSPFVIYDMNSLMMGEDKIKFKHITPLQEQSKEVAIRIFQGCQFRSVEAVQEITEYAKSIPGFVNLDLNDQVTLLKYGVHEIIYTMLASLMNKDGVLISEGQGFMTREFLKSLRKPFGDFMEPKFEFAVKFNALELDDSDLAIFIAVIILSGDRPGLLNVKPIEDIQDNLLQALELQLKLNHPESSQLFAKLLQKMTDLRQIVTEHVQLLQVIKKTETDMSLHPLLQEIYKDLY

[2] = target: T1, human PPAR γ 2; assay: PPAR γ transcriptional activity, luciferase reporter, test compound alone; type: cell-based; conditions: concentration indicating Emax/2, MG63 cells transfected with pSG5-hPPARg and pGV-P2-PPRE, 24 hr
How it was run: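 Human osteosarcoma MG63 cells transiently co-transfected with human PPARγ2 expression plasmid and PPRE-luciferase reporter (rat acyl-CoA oxidase promoter element), then exposed 24 h to test compound alone. Luciferase luminescence gave dose-response curves; EC50 is the concentration giving half of the compound's maximal activity (Emax).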

How did the IC50 [1] turn out when O=C(Nc1ccc(S(=O)(=O)Nc2nccs2)cc1)c1cc([N+](=O)[O-])ccc1Cl [Example 96, N-[4-(Thiazol-2-yl)aminosulfonyl]phenyl-(2-chloro-5-nitrophenyl)carboxamide] was run?
The IC50 was 650 nM.

What about the EC50 [2] of the same compound?
Its EC50 is 22 nM.

What does the source list for Cc1cc(NS(=O)(=O)c2ccc(NC(=O)c3cc([N+](=O)[O-])ccc3Cl)cc2)no1 [Example 99]?
IC50 [1]: 680 nM; EC50 [2]: 34 nM

Which IC50 [1] does the source give for O=C(Nc1ccc(S(=O)(=O)Nc2ccc(Cl)nn2)cc1)c1cc([N+](=O)[O-])ccc1Cl [Example 102, N-[4-[(6-Chloropyridazin-3-yl)aminosulfonyl]phenyl]-(2-chloro-5-nitrophenyl)carboxamide] here?
The IC50 was 490 nM.

What about the EC50 [2] of the same compound?
Its EC50 is 43 nM.

For COc1cnc(NS(=O)(=O)c2ccc(NC(=O)c3cc([N+](=O)[O-])ccc3Cl)cc2)nc1 [Example 105, N-[4-[(5-Methoxypyrimidin-2-yl)aminosulfonyl]phenyl]-(2-chloro-5-nitrophenyl)carboxamide], which IC50 [1] is on record?
The IC50 was 710 nM.

What about the EC50 [2] of the same compound?
Its EC50 is 87 nM.

How did the IC50 [1] turn out when N=C(N)NS(=O)(=O)c1ccc(NC(=O)c2cc([N+](=O)[O-])ccc2Cl)cc1 [Example 106, N-[4-(Amidinoaminosulfonyl)phenyl]-(2-chloro-5-nitrophenyl)carboxamide] was run?
The IC50 was 360 nM.

And the EC50 [2]?
Its EC50 is 49 nM.

O=C(Nc1ccc(S(=O)(=O)Nc2ccnn2-c2ccccc2)cc1)c1cc([N+](=O)[O-])ccc1Cl [Example 108, N-[4-[(2-Phenyl-(2H)-pyrazol-3-yl)aminosulfonyl]phenyl]-(2-chloro-5-nitrophenyl)carboxamide] was tested. Which IC50 [1] did it give?
Its IC50 is 59 nM.

And the EC50 [2]?
The EC50 was 57 nM.

Which results are given for O=C(Nc1nnc(-c2ccccc2)s1)c1cc([N+](=O)[O-])ccc1Cl [Example 110, N-(5-Phenyl-[1,3,4]thiadiazol-2-yl)-(2-chloro-5—nitrophenyl)carboxamide]?
IC50 [1]: 190 nM; EC50 [2]: 15 nM

For O=C(Nc1nc(-c2ccc(F)c(F)c2)cs1)c1cc([N+](=O)[O-])ccc1Cl [Example 111, N-[4-(3,4-Difluorophenyl)thiazol-2-yl]-(2-chloro-5-nitrophenyl)carboxamide], which IC50 [1] is on record?
Its IC50 is 27 nM.

What about the EC50 [2] of the same compound?
The EC50 was 79 nM.

Which results are given for Cc1ccc(S(=O)(=O)Nc2ccc(NC(=O)c3cc([N+](=O)[O-])ccc3Cl)cc2)cc1 [Example 116, N-[4-(4-Toluenesulfonylamino)phenyl]-(2-chloro-5-nitrophenyl)carboxamide]?
IC50 [1]: 55 nM; EC50 [2]: 11 nM

CC(=O)Nc1ccc(NC(=O)c2cc([N+](=O)[O-])ccc2Cl)cc1 [Example 117, N-(4-Acetylaminophenyl)-(2-chloro-5-nitrophenyl)carboxamide] was tested. Which IC50 [1] did it give?
Its IC50 is 120 nM.

What about the EC50 [2] of the same compound?
The EC50 was 8.7 nM.

What does the source list for O=C(Nc1ccc(NC(=O)c2cc([N+](=O)[O-])ccc2Cl)cc1)c1ccccc1 [Example 119, N-(4-Benzoylaminophenyl)-(2-chloro-5-nitrophenyl)carboxamide]?
IC50 [1]: 36 nM; EC50 [2]: 21 nM

How did the IC50 [1] turn out when O=C(Nc1ccc(NC(=O)c2cc([N+](=O)[O-])ccc2Cl)cc1)c1ccncc1 [Example 125, N-[4-(Pyridin-4-ylcarbonylamino)phenyl]-(2-chloro-5-nitrophenyl)carboxamide] was run?
The IC50 was 240 nM.

And the EC50 [2]?
The EC50 was 19 nM.

For CCCCCCN(CCCCCC)c1ccc(NC(=O)c2cc([N+](=O)[O-])ccc2Cl)cc1 [Example 138, N-[4-(N,N-di-n-Hexylamino)phenyl]-(2-chloro-5-nitrophenyl)carboxamide], which IC50 [1] is on record?
Its IC50 is 20 nM.

What about the EC50 [2] of the same compound?
The EC50 was 130 nM.

For CC(C)(C)c1cc(C(=O)Nc2ccc(NC(=O)c3cc([N+](=O)[O-])ccc3Cl)cc2)cc(C(C)(C)C)c1O [Example 157, N-[4-[(3,5-di-tert-Butyl-4-hydroxybenzoyl)amino]phenyl]-(2-chloro-5-nitrophenyl)carboxamide], which IC50 [1] is on record?
Its IC50 is 23 nM.

And the EC50 [2]?
Its EC50 is 760 nM.

CN(C)c1cccc(NC(=O)c2cc([N+](=O)[O-])ccc2Cl)c1 [Example 176, N-(3-Dimethylamino)phenyl-(2-chloro-5-nitrophenyl)carboxamide] was tested. Which IC50 [1] did it give?
The IC50 was 66 nM.

And the EC50 [2]?
Its EC50 is 11 nM.

For O=C(Nc1ccc(S(=O)(=O)Nc2cccnc2)cc1)c1cc([N+](=O)[O-])ccc1Cl [Example 178], which IC50 [1] is on record?
The IC50 was 330 nM.

And the EC50 [2]?
The EC50 was 16 nM.

How did the IC50 [1] turn out when O=C(Nc1ccc(S(=O)(=O)Nc2ccc(N3CCOCC3)cc2)cc1)c1cc([N+](=O)[O-])ccc1Cl [Example 179, N-[4-[4-(Morpholin-4-yl)phenyl]aminosulfonyl]phenyl-(2-chloro-5-nitrophenyl)carboxamide] was run?
Its IC50 is 56 nM.

What about the EC50 [2] of the same compound?
Its EC50 is 780 nM.

For CCCNc1ccc(NC(=O)c2cc([N+](=O)[O-])ccc2Cl)cc1 [Example 181, N-[4-(N-Propylamino)phenyl]-(2-chloro-5-nitrophenyl)carboxamide], which IC50 [1] is on record?
Its IC50 is 20 nM.

What about the EC50 [2] of the same compound?
The EC50 was 5.6 nM.

CCCN(CC)c1ccc(NC(=O)c2cc([N+](=O)[O-])ccc2Cl)cc1 [Example 189, N-[4-(N-Ethyl-N-propylamino)phenyl]-(2-chloro-5-nitrophenyl)carboxamide] was tested. Which IC50 [1] did it give?
Its IC50 is 3.6 nM.

What about the EC50 [2] of the same compound?
The EC50 was 0.7 nM.

Which IC50 [1] does the source give for O=C(Nc1cccc(O)c1)c1cc([N+](=O)[O-])ccc1Cl [Example 191, N-(3-Hydroxyphenyl)-(2-chloro-5-nitrophenyl)carboxamide] here?
Its IC50 is 30 nM.

And the EC50 [2]?
Its EC50 is 4.2 nM.

Which results are given for CCN(c1ccc(NS(=O)(=O)c2ccc(NC(=O)c3cc([N+](=O)[O-])ccc3Cl)cc2)cc1)C(C)C [Example 232, N-[[4-[4-(N-Ethyl-N-isopropylamino)phenyl]aminosulfonyl]phenyl]-(2-chloro-5-nitrophenyl)carboxamide]?
IC50 [1]: 56 nM; EC50 [2]: 610 nM

Which results are given for CC(O)c1cccc(NC(=O)c2cc([N+](=O)[O-])ccc2Cl)c1 (stereo not shown) [Example 239, N-[3-(1-Hydroxyethyl)phenyl]-(2-chloro-5-nitrophenyl)carboxamide]?
IC50 [1]: 52 nM; EC50 [2]: 44 nM

Which results are given for O=C(Nc1ccc(NC(=S)Nc2cccnc2)cc1)c1cc([N+](=O)[O-])ccc1Cl [Example 257, N-[4-[(Pyridin-3-yl)aminothiocarbonylamino]phenyl]-(2-chloro-5-nitrophenyl)carboxamide]?
IC50 [1]: 130 nM; EC50 [2]: 120 nM

With O=C(Nc1ccc(NC(=S)Nc2ccncc2)cc1)c1cc([N+](=O)[O-])ccc1Cl [Example 259, N-[4-[(Pyridin-4-yl)aminothiocarbonylamino]phenyl]-(2-chloro-5-nitrophenyl)carboxamide] as the compound, how does the IC50 [1] read?
Its IC50 is 31 nM.

What about the EC50 [2] of the same compound?
The EC50 was 0.7 nM.

What does the source list for “N-(Ethoxyphenyl)-(2-chloro-5-nitrophenyl)carboxamide [Example 229]”?
IC50 [1]: 46 nM; EC50 [2]: 160 nM

With “N-[4-(Pyrrolidinylsulfonyl)phenyl]-(2-chloro-5-nitrophenyl)carboxamide [Example 152]” as the compound, how does the IC50 [1] read?
The IC50 was 42 nM.

And the EC50 [2]?
Its EC50 is 8.7 nM.
